This passage reports melting point results from US20040209859A1, “Fused cycloalkyl amides and acids and their therapeutic applications” (priority 2002, published 2004).

Turning to `CC1(C)[C@@H]2CC3[C@H](C(=O)O)[C@@]3(C)C[C@@H]21` (stereo partly drawn) (hydrate or solvate) [Example 1, (1S,3S,4S,7R)-3,8,8-trimethyltricyclo[5.1.0.0^3,5]octane-4-carboxylic acid], the melting point – broadly, the temperature of the solid-liquid transition – is 86 °C.

`CC1(C)[C@@H]2CC3[C@H](C(N)=O)[C@@]3(C)C[C@@H]21` (stereo partly drawn) [Example 3, (1S,3S,4S,7R)-3,8,8-trimethyltricyclo[5.1.0.0^3,5]octane-4-carboxamide] returned a melting point of 121.5 to 122.5 °C.

With `CC1(C)[C@@H]2CC3[C@H](C(=O)NCC(N)=O)[C@@]3(C)C[C@@H]21` (stereo partly drawn) [Example 4, (1S,3S,4S,7R)-N-(2-amino-2-oxoethyl)-3,8,8-trimethyltricyclo [5.1.0.0^3,5]octane-4-carboxamide], the melting point is 169.2 to 169.7 °C.
